These results are taken from patent US9096593B2, “Compounds and methods for kinase modulation, and indications therefor” (Plexxikon Inc., priority 2009, dated 2015).

Series [1] deals with c-Kit kinase (Homo sapiens (Human), UniProt P10721). The series is described as follows: c-Kit kinase biochemical activity assay (AlphaScreen, biotin-(E4Y)10 phosphorylation). On the procedure: In one assay the biochemical activity IC50 values are determined with respect to inhibition of c-Kit kinase activity, where inhibition of phosphorylation of a peptide substrate is measured as a function of compound concentration. Compounds to be tested are dissolved in DMSO to a concentration of 20 mM. These are diluted 30 μL into 120 μL of DMSO (4 mM) and 1 μL is added to an assay plate. These are then serially diluted […] (50 μL to 100 μL DMSO) for a total of 8 points. Plates are prepared such that each kinase reaction is 20 μL in 1× kinase buffer (25 mM HEPES, pH 7.5, 2 mM MgCl2, 2 mM MnCl2, 0.01% Tween-20, 1 mM DTT, 0.01% BSA), 5% DMSO and 100 μM ATP. Substrate is 30 nM biotin-(E4Y)10 (Millipore). C-kit kinase (obtained from Millipore (#14-559) or is prepared as described in U.S. Patent Application Publication Number 2009/0076046, the disclosure of which is hereby incorporated by reference as it relates to this assay) is at 0.75 ng per sample. After incubation of the kinase reaction for 1 hour at room temperature, 5 μL of donor beads (Streptavidin coated beads (Perkin Elmer Life Science) final concentration 10 μg/mL) in stop buffer (25 mM Hepes pH 7.5, 100 mM EDTA, 0.01% BSA) is added, the sample is mixed and incubated for 20 minutes at room temperature before adding 5 μL of acceptor beads (PY20 coated beads (Perkin Elmer Life Science) final concentration 10 μg/mL) in stop buffer. The samples are incubated for 60 minutes at room temperature and the signal per well is read on Envision reader. […] The signal vs. compound concentration is used to determine the IC50.

The target in series [2] is BCR-FMS/BaF3 cells (Homo sapiens, UniProt P07333). The series is described as follows: BCR-FMS/BaF3 cell proliferation assay (ATPlite). It is filed as cell-based. The procedure, abridged: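 BCR-FMS/BaF3 cells at 2×10^5 cells/mL in growth media with 1 mg/mL G418, without WEHI/IL-3, treated with 8-point 1:3 compound titrations (top 10 μM final) for 3 days at 37 °C, 5% CO2. Cell number by ATPlite luminescence; IC50 from signal versus concentration.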
In general terms: ATP-based viability assays read luminescence as a measure of living cells.

Series [3] deals with CYP2C9 (Homo sapiens (Human), UniProt P11712). Put plainly: CYP enzyme inhibition, fluorescent substrate. On the procedure: (§1) CYP (Cytochrome P450) enzymes are the major drug metabolizing enzymes present in the liver. The inhibition of CYP enzyme activity (IC50) for each of CYP1A2, CYP2C19, CYP2C9, CYP2D6, CYP3A4(BFC) and CYP3A4(BQ) is determined for compounds, where inhibition of metabolism of a known substrate leads to a decrease in the fluorescence of the metabolized product. The fluorescence of the product is monitored as a function of compound concentration.
(§2) Compounds are dissolved in DMSO to a concentration of 100 mM. These are diluted 1 μL into 82 μL of acetonitrile. An 11 μL aliquot of this solution is then added to 204 μL of cofactor mix (1.3% NADPH Regeneration system Solution A, 1.04% NADPH Regeneration system Solution B from BD Biosciences, 5% acetonitrile and 0.05% DMSO). These are then serially diluted 1:1 (160 μL to 160 μL co-factor mix) for a total of 10 points. A 10 μL aliquot of this final mixture is dispensed into 384 well assay plates and incubated for 10 minutes at 37° C. Enzyme and substrate mix (10 μL; […] CYP1A2/5 μM CEC; 1.0 μmol CYP2C9/75 μM MFC; […] CYP2C19/25 μM CEC; 1.5 μmol CYP2D6/1.5 μM AMMC; 1.0 μmol CYP3A4/50 μM BFC; or 1.0 μmol CYP3A4/40 μM BQ) is added to these assay plates. Assay plates are incubated at 37° C. (CYP1A2-15 min; CYP2C9-45 min; CYP2C19, 2D6 and 3A4-30 min) and read in a Tecan Safire 2 plate reader (CYP1A2, 2C19 and 3A4 409 ex/460 em; CYP2C9 and 2D6409 ex/530 em). The signal versus compound concentration is used to determine the IC50. The enzymes and substrates for this assay are obtained from BD Biosciences.

The target of series [4] is CYP3A4(BQ) (Homo sapiens (Human), UniProt P08684). Put plainly: CYP enzyme inhibition, fluorescent substrate. How it is done: as §1, §2
For series [5], the target named is CYP2D6 (Homo sapiens (Human), UniProt P10635). Put plainly: CYP enzyme inhibition, fluorescent substrate. As to conditions: read-out: Cyp IC50 (μM) 2D6. On the procedure: as §1, §2
Series [6] addresses CYP3A4(BFC) (Homo sapiens (Human), UniProt P08684). Put plainly: CYP enzyme inhibition, fluorescent substrate. On the procedure:
as §1, §2

Series [7] has as its target CYP1A2 (Homo sapiens (Human), UniProt P05177). The series is described as follows: CYP enzyme inhibition, fluorescent substrate. How it is done: as §1, §2
Setting [8] is: Kit IC50/Fms IC50, BCR-KIT/BaF3 vs BCR-FMS/BaF3 cells.
Setting [9] is: read-out: BCR/BaF3 (IC50 μM) Fms; BCR-FMS/BaF3 cells.
Where [10] appears, read: human, CYP2C9 enzyme (BD Biosciences), 45 min.
The mark [11] stands for this setting: read-out: Cyp IC50 (μM) 3A4(BFC), BFC substrate.
[12] abbreviates: read-out: Cyp IC50 (μM) 3A4(BQ), BQ substrate.
[13] abbreviates: BCR-FMS/BaF3 cells; read-out: BCR/BaF3 (IC50 μM) Fms.

Read-outs that look alike come from different tables or passages of the source. Some results are limits rather than exact numbers.

CYP2C9, sequence (P11712 whole entry): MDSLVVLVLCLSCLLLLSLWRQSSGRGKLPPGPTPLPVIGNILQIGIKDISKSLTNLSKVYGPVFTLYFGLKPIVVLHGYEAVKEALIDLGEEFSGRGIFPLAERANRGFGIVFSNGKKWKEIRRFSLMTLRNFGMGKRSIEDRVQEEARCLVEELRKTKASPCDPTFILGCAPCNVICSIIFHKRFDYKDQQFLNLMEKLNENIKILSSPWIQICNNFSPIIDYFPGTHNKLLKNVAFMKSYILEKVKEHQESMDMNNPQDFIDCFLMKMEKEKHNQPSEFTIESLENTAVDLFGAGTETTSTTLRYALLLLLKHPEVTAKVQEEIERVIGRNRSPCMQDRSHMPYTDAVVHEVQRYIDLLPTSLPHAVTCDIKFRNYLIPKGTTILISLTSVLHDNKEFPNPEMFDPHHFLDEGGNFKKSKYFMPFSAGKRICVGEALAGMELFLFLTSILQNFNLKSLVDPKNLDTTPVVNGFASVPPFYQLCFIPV
CYP2D6, sequence (P10635 whole entry): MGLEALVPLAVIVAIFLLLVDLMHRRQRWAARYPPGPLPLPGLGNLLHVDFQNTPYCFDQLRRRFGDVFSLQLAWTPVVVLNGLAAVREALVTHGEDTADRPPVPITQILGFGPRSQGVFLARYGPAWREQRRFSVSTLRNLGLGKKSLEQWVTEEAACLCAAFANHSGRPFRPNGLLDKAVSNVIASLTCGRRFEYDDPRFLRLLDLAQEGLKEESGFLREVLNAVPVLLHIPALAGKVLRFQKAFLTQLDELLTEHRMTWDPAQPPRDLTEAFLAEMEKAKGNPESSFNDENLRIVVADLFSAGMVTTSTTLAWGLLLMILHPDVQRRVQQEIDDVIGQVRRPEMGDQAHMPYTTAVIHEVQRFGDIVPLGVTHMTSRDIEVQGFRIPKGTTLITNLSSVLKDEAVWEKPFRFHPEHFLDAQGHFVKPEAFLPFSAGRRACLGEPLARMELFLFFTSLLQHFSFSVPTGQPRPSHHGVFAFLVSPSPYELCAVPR
CYP3A4(BQ), sequence (P08684 whole entry): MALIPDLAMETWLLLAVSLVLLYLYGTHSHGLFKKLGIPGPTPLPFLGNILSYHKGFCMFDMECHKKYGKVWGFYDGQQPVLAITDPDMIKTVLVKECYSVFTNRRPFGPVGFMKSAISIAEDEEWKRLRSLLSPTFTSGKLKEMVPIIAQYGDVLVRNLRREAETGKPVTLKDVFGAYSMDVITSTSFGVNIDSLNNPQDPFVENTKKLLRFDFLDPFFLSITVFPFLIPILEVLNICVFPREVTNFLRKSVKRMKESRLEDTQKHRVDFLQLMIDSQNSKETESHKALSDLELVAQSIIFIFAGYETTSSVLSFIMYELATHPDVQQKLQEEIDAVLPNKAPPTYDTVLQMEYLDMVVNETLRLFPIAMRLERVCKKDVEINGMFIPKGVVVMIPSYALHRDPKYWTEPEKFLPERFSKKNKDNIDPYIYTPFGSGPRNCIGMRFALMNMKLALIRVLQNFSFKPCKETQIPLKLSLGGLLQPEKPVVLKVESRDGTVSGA
CYP3A4(BFC), sequence (P08684 whole entry): as above
BCR-FMS/BaF3 cells, sequence (P07333 20-972 limits assumed, change not shown): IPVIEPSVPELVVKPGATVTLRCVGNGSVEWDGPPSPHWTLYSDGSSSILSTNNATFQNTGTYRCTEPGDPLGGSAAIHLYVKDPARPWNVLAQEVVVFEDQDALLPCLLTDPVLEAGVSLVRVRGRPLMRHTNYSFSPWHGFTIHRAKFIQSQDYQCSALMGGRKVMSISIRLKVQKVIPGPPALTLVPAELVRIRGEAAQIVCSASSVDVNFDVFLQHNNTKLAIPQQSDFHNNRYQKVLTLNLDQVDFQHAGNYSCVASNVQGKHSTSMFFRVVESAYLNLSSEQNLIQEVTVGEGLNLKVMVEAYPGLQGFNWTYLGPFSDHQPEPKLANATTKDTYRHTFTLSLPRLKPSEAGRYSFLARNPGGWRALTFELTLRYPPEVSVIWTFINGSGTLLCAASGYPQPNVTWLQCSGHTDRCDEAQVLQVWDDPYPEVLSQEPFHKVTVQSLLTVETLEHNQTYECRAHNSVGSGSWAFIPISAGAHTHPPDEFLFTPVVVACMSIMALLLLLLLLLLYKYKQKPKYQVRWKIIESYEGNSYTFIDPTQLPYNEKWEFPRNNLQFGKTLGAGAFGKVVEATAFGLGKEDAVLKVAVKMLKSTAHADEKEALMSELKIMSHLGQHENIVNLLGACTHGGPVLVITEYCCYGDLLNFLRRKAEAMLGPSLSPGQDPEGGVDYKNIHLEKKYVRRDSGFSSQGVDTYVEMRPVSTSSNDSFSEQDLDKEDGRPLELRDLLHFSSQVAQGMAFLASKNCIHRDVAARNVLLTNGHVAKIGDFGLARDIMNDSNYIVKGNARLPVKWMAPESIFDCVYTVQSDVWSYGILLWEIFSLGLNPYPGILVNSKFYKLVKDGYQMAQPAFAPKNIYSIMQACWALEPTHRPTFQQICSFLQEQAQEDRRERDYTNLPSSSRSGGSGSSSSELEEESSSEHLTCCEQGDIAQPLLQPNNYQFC
CYP1A2, sequence (P05177 whole entry): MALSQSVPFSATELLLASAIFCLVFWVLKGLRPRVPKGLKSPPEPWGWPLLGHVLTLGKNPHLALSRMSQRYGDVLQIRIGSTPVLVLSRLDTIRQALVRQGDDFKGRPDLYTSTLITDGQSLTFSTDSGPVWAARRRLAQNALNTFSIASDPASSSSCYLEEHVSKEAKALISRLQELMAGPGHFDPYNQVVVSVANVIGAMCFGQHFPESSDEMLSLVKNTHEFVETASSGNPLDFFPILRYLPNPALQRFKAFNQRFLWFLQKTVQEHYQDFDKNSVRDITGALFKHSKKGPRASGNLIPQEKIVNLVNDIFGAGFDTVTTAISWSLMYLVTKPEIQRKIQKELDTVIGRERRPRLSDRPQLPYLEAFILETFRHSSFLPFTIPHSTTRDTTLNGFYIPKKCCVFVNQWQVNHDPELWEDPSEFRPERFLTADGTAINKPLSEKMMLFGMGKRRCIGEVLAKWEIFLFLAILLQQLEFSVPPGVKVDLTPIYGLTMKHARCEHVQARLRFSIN
c-Kit kinase, sequence (P10721 26-976): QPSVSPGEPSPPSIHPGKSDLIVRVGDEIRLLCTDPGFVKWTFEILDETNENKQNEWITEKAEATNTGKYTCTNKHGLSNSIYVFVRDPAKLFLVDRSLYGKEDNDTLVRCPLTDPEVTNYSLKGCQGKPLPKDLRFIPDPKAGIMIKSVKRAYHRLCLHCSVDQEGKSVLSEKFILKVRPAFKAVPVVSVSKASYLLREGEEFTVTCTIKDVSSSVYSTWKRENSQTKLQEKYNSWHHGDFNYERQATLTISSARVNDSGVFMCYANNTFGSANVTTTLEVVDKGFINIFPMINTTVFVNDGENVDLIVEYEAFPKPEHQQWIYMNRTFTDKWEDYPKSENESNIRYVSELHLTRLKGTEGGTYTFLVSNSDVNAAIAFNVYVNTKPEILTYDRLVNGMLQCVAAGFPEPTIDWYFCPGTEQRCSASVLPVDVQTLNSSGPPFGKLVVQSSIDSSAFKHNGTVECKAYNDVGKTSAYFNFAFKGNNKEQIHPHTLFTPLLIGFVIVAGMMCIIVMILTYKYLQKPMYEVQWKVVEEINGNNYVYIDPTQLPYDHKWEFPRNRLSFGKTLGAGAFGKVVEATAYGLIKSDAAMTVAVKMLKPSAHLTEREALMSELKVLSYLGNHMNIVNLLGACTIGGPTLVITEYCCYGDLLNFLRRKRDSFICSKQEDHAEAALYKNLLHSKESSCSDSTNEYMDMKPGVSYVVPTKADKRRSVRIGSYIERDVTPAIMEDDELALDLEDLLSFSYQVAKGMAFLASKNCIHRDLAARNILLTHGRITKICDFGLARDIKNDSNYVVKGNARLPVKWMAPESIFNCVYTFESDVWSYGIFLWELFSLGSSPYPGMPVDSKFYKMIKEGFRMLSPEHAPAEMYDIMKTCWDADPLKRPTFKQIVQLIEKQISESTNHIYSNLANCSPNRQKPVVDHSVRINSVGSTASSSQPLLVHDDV

As for `COc1ccc(CNc2ncc(Cc3c[nH]c4ncc(C)cc34)cc2F)cn1` [Compound P-1562, [3-Fluoro-5-(5-methyl-1H-pyrrolo[2,3-b]pyridin-3-ylmethyl)-pyridin-2-yl]-(6-methoxy-pyridin-3-ylmethyl)-amine], the IC50 is < 0.1 µM in series [1]; < 0.1 µM in series [2] (setting [9]); < 5 µM in series [3] (read-out: Cyp IC50 (μM) 2C9); 5 to 10 µM in series [4]; > 10 µM in series [5]; 5 to 10 µM in series [6]. Also, in series [7] (human, 15 min), the IC50 is > 10 µM. Further, the “BCR/BaF3 selectivity (Kit IC50/Fms IC50)” value in series [2] (setting [8]) is given as <20.
Turning to `COc1ncc(F)cc1CNc1ccc(Cc2c[nH]c3ncc(NC(C)=O)cc23)c(F)n1` [Compound P-1669, N-(3-{2-fluoro-6-[(5-fluoro-2-methoxy-pyridin-3-ylmethyl)-amino]-pyridin-3-ylmethyl}-1H-pyrrolo[2,3-b]pyridin-5-yl)-acetamide], in series [2] (setting [8]), the “BCR/BaF3 selectivity (Kit IC50/Fms IC50)” value is reported as >20. For the same compound, the IC50 in series [2] (setting [9]) is < 0.1 µM; in series [3] (read-out: Cyp IC50 (μM) 2C9), < 5 µM; in series [5], > 10 µM; in series [6] it was 5 to 10 µM; in series [7] (human, 15 min) it was > 10 µM.
On to `CS(=O)(=O)Nc1cnc2[nH]cc(Cc3ccc(NCc4ccc(Cl)nc4)nc3F)c2c1` [Compound P-1679, N-(3-{6-[(6-Chloro-pyridin-3-ylmethyl)-amino]-2-fluoro-pyridin-3-ylmethyl}-1H-pyrrolo[2,3-b]pyridin-5-yl)-methanesulfonamide], for which the IC50 is > 0.1 µM in series [1]; < 0.1 µM in series [2] (setting [9]); < 5 µM in series [3] (setting [10]); > 10 µM in series [5]; > 10 µM in series [6] (setting [11]); > 10 µM in series [7] (human, 15 min). Moreover, the “BCR/BaF3 selectivity (Kit IC50/Fms IC50)” value in series [2] (setting [8]) is on record as >20.
Regarding `COc1cnc2[nH]cc(Cc3ccc(NCc4cncc(F)c4)nc3F)c2c1` [Compound P-2028, [6-Fluoro-5-(5-methoxy-1H-pyrrolo[2,3-b]pyridin-3-ylmethyl)-pyridin-2-yl]-(5-fluoro-pyridin-3-ylmethyl)-amine], the IC50 is > 0.1 µM in series [1]; < 0.1 µM in series [2] (setting [9]); < 5 µM in series [3] (read-out: Cyp IC50 (μM) 2C9); < 5 µM in series [4] (setting [12]); < 5 µM in series [6] (setting [11]); > 10 µM in series [7] (human, 15 min). Besides, the “BCR/BaF3 selectivity (Kit IC50/Fms IC50)” value in series [2] (setting [8]) is reported as >20.
Consider `COc1ccc(CNc2ncc(Cc3c[nH]c4ncc(Cl)cc34)cn2)cn1` [Compound P-2038, [5-(5-Chloro-1H-pyrrolo[2,3-b]pyridin-3-ylmethyl)-pyrimidin-2-yl]-(6-methoxy-pyridin-3-ylmethyl)-amine], for which the IC50 in series [1] was > 0.1 µM; in series [2] (setting [9]), < 0.1 µM; in series [2] (read-out: Cell based (IC50 μM) BCR/BaF3 (Fms); BCR-FMS/BaF3 cells, 3 days), < 0.1 µM; in series [3] it was 5 to 10 µM; in series [4] (setting [12]), > 10 µM; in series [6] (setting [11]), > 10 µM. Also, in series [7] (human, 15 min), the IC50 was > 10 µM. In addition, the “BCR/BaF3 selectivity (Kit IC50/Fms IC50)” value in series [2] (setting [8]) is >20.
`COc1ncccc1CNc1ccc(Cc2c[nH]c3ncccc23)c(F)n1` [Compound P-2045, [6-Fluoro-5-(1H-pyrrolo[2,3-b]pyridin-3-ylmethyl)-pyridin-2-yl]-(2-methoxy-pyridin-3-ylmethyl)-amine]: the IC50 in series [1] is > 0.1 µM; in series [2] (setting [9]) it was < 0.1 µM; in series [3] (read-out: Cyp IC50 (μM) 2C9), > 10 µM; in series [4] (setting [12]) it was > 10 µM; in series [6], 5 to 10 µM; in series [7] (human, 15 min), > 10 µM. Further, the “BCR/BaF3 selectivity (Kit IC50/Fms IC50)” value in series [2] (setting [8]) is on record as >20.
With `COc1cc(CNc2ccc(Cc3c[nH]c4ncc(C)cc34)c(F)n2)c(F)cn1` [Compound P-2071, (5-Fluoro-2-methoxy-pyridin-4-ylmethyl)-[6-fluoro-5-(5-methyl-1H-pyrrolo[2,3-b]pyridin-3-ylmethyl)-pyridin-2-yl]-amine], the IC50 in series [1] is > 0.1 µM; in series [2] (setting [9]) it was > 0.1 µM; in series [3], 5 to 10 µM; in series [4], 5 to 10 µM; in series [6] it was 5 to 10 µM; in series [7] (human, 15 min), > 10 µM. The “BCR/BaF3 selectivity (Kit IC50/Fms IC50)” value in series [2] (setting [8]) is >20.
As to `Cc1cc(CNc2ccc(Cc3c[nH]c4ncc(Cl)cc34)c(F)n2)ccn1` [Compound P-2075, [5-(5-Chloro-1H-pyrrolo[2,3-b]pyridin-3-ylmethyl)-6-fluoro-pyridin-2-yl]-(2-methyl-pyridin-4-ylmethyl)-amine], the IC50 in series [1] was > 0.1 µM; in series [3] (read-out: Cyp IC50 (μM) 2C9), < 5 µM; in series [4], 5 to 10 µM; in series [5], > 10 µM; in series [6] (setting [11]) it was < 5 µM; in series [7], 5 to 10 µM.
For the compound `Cc1ccc(CNc2ccc(Cc3c[nH]c4ncc(C)cc34)c(F)n2)nc1` [Compound P-2131, [6-Fluoro-5-(5-methyl-1H-pyrrolo[2,3-b]pyridin-3-ylmethyl)-pyridin-2-yl]-(5-methyl-pyridin-2-ylmethyl)-amine], the IC50 is > 0.1 µM in series [1]; < 0.1 µM in series [2] (setting [13]); < 5 µM in series [3] (setting [10]); > 10 µM in series [4] (setting [12]); < 5 µM in series [6] (setting [11]); > 10 µM in series [7] (human, 15 min). Also, the “BCR/BaF3 selectivity (Kit IC50/Fms IC50)” value in series [2] (setting [8]) is <20.
Consider `Fc1cc(Cc2c[nH]c3ncc(Cl)cc23)cnc1NCc1ccc(C(F)(F)F)nc1` [Compound P-2172, [5-(5-Chloro-1H-pyrrolo[2,3-b]pyridin-3-ylmethyl)-3-fluoro-pyridin-2-yl]-(6-trifluoromethyl-pyridin-3-ylmethyl)-amine], for which the IC50 is < 0.1 µM in series [1]; < 0.1 µM in series [2] (setting [13]); 5 to 10 µM in series [3]; > 10 µM in series [5]; > 10 µM in series [6] (setting [11]); > 10 µM in series [7] (human, 15 min). In addition, in series [2] (setting [8]), the “BCR/BaF3 selectivity (Kit IC50/Fms IC50)” value is <20.
As for `CCS(=O)(=O)Nc1ccccc1CNc1ccc(Cc2c[nH]c3ncc(C)cc23)c(F)n1` [Compound P-2198, Ethanesulfonic acid (2-{[6-fluoro-5-(5-methyl-1H-pyrrolo[2,3-b]pyridin-3-ylmethyl)-pyridin-2-ylamino]-methyl}-phenyl)-amide], the IC50 in series [1] is > 0.1 µM; in series [2] (setting [9]), < 0.1 µM; in series [3], 5 to 10 µM; in series [5] it was > 10 µM; in series [6] (setting [11]), < 5 µM; in series [7] (human, 15 min), > 10 µM. Further, the “BCR/BaF3 selectivity (Kit IC50/Fms IC50)” value in series [2] (setting [8]) is given as <20.
